The subject of assay [1] is C42B (human prostate cancer line). Briefly: CCK-8 antiproliferative assay, C42B. The format is cell-based. Conditions: 48 h, read-out: IC50, Mean ± SE, C42B.
Assay [2] has as its system A549/CDDP (A549 cell line resistant to cisplatin). In words: CCK-8 cytotoxicity, A549/CDDP. Particulars: Homo sapiens, 48 h, CCK-8, cisplatin-resistant, read-out: IC50, Mean ± SE, A549/CDDP. The assay is classed as cell-based. The method, then:
(§1) Besides the high cytotoxicity, drug resistance is the other limiting factor of chemotherapeutics. In this study, the cytotoxicities of compound 14b towards five kinds of drug-resistant cancer cell lines were also evaluated. Except three kinds of cell lines that are resistant to three drugs commonly used in clinical practice, two kinds of cell lines that are resistant to MTAs were also evaluated.
(§2) A549 (non-small-cell-lung cancer cell line), Caski (human epithelial cervical cancer cell line), HepG2 (human liver carcinoma cell line), MCF-7 (human breast carcinoma cell line), C42B (human prostate cancer line C42B), L-02 (human normal hepatocytes), RWPE-1 (human prostate epithelial cells) and MCF-10A (human normal mammary epithelial cells) were obtained from National Collection of Authenticated Cell Cultures (Shanghai, China). […]
(§3) After 24 h, the medium containing different concentrations of tested compounds were added for another 48 h. […] The optical density was recorded with a microplate reader at 570 nm (Thermo Scientific, Varioskan LUX). All the experiments were repeated independently at least three times and the IC50 values were calculated […]

Assay [3] deals with C42B/ENZR (C42b cell line resistant to Enzalutamide). In words: CCK-8 cytotoxicity, C42B/ENZR. The assay is classed as cell-based. Particulars: Homo sapiens; 48 h, CCK-8, Enzalutamide-resistant; read-out: IC50, Mean ± SE, C42B/ENZR. The method, then: as §1, §2, §3
The fluorescence intensity enhancement (emission wavelength is 410 nm, excitation wavelength is 340 nm) was recorded every 60 s for 60 min in a multifunction microplate reader (Molecular Devices, Flex Station 3). […]

Assay [4] deals with A2780/TAX (A2780 cell line resistant to taxol). In words: CCK-8 cytotoxicity, A2780/TAX. The assay is classed as cell-based. Conditions: Homo sapiens, 48 h, CCK-8, taxol-resistant, read-out: IC50, Mean ± SE, A2780/TAX. The method, then:
as §1, §2, §3

The target of assay [5] is tubulin (colchicine binding site) (Sus scrofa, UniProt P02554). Briefly: colchicine competitive inhibition (binding) assay. The method, then: Tubulin–microtubule homeostasis is crucial for cell mitosis.
Figure 2 Effect of compound 14b on tubulin. […] The experiments were performed at least three times, and representative images are shown. Scale bars are 10 μm. […] The backbone of tubulin is shown in ribbon representation (α-tubulin, yellow; β-tubulin, green). […] The data were shown as mean ± SE (standard error) of at least three independent experiments.

In assay [6] the test system is five kinds of human cancer cell lines (A549, Caski, HepG2, C42B, MCF-7). Briefly: CCK-8 assay, panel of five human cancer cell lines. Conditions: 48 h, read-out: IC50 values, range over five human cancer cell lines. The format is cell-based. For orientation: Tetrazolium dyes change colour on reduction, which living cells bring about.

Take `COc1ccc(C(=O)c2ccc3c(ccn3C)c2)c2c1C=CC(C)(C)O2` [compound 14b, (5-methoxy-2,2-dimethyl-2H-chromen-8-yl)(1-methyl-1H-indol-5-yl)methanone]: the IC50 in assay [1] is 51 ± 5 nM; in assay [2], 35 ± 21 nM; in assay [3], 42 ± 11 nM; in assay [4], 42 ± 11 nM; in assay [5], 1040 ± 20 nM; in assay [6], 22 to 74 nM.

Source of the values: publication PMC9921564, “Novel Indole-Containing Hybrids Derived from Millepachine: Synthesis, Biological Evaluation and Antitumor Mechanism Study” (Molecules, 2023).
